Measurements published in US20100247579A1, “THERAPEUTIC AGENT FOR CANCER” (priority 2007, published 2010).
Where a name gives a salt, the structure may show the parent alone. Read-outs that look alike come from different tables or passages of the source.

Columns and labels:
[1] = system: lymphocytes derived from cancer patient No. PT009 expanded with OKT3 and CH-296; test: Resistance to anticancer agents, WST-1 GI50 on cultured lymphocytes of cancer patient No. PT009; format: cell-based, human; conditions: day 10 of culture with OKT3 and CH-296, 20 hours with drug
Experimental: After that, the suspension was stained by the trypan blue staining method to calculate the viable cell count, and then subjected to each experiment.
(§1) On the other hand, the IL-2/5HRPMI was added to the control group in 50 μL/well each.
(§2) These culture plates were incubated at 37° C. for 20 hours in the presence of 5% CO2. After the incubation, WST-1 (Premix WST-1 Cell Proliferation Assay System, manufactured by Takara Bio Inc.) was added in 20 μL/well each to each well of the plate, and incubated in the presence of 5% CO2 at 37° C. for 4 hours. The plates after the incubation were centrifuged at 500×g at room temperature for 5 minutes. After the centrifugation, 100 μL of the supernatant was collected from each well, and the absorbance was measured at an absorption wavelength of 450 nm and a control wavelength of 630 nm [hereinafter referred to as the absorbance (450 nm-630 nm)] using a microplate reader (manufactured by Bio-Rad Laboratories, Inc., Model Number 680XR), and then the specific absorbance (450 nm-630 nm) was calculated according to the following formula.
(§3) Specific absorbance (450 nm-630 nm)=Absorbance of Test Cell Addition Group (450 nm-630 nm)−Absorbance of Control Group (450 nm-630 nm) Formula 2: […]

[2] = system: expanded lymphocytes derived from a human healthy donor; test: Resistance to anticancer agents, WST-1 GI50 on cultured lymphocytes of a human healthy donor; format: cell-based; conditions: for GI50: Homo sapiens, Lymphocyte
Experimental: as §1, §2, §3
Here, a group where only OKT3 was immobilized to the culture equipment in the expansion of the lymphocytes was also set.
However, in the case of paclitaxel, a human AB type serum was used as a solvent for dilution, and for other drugs, 5HRPMI was used for dilution.

| SMILES | GI50 [1] [µg/mL] | GI50 (μg/mL) Initial Stimulation OKT3 + CH-296 ([2]; healthy donor lymphocytes expanded with OKT3 + CH-296) [µg/mL] | GI50 (μg/mL) Initial Stimulation OKT3 ([2]; healthy donor lymphocytes expanded with OKT3 alone) [µg/mL] | GI50 ([1]; Homo sapiens, Lymphocyte, read-out: GI50) [µg/mL] | GI50 ([2]; healthy donor lymphocytes expanded with OKT3 + CH-296, read-out: GI50 (μg/mL) Initial Stimulation OKT3 + CH-296) [µg/mL] | GI50 ([2]; healthy donor lymphocytes expanded with OKT3 alone, read-out: GI50 (μg/mL) Initial Stimulation OKT3) [µg/mL] |
| --- | --- | --- | --- | --- | --- | --- |
| N.N.O=C([O-])C1(C(=O)[O-])CCC1.[Pt+2] [Carboplatin, carboplatin] | 215.5 | 161.31 | 116.16 |  |  |  |
| N.N.[Cl][Pt][Cl] [Cisplatin, cisplatin] | 3.7 |  |  |  |  |  |
| COc1cccc2c1C(=O)c1c(O)c3c(c(O)c1C2=O)C[C@@](O)(C(=O)CO)C[C@@H]3O[C@H]1C[C@H](N)[C@H](O)[C@H](C)O1 [Doxorubicin Hydrochloride, doxorubicin hydrochloride] |  |  |  | 0.5 | 0.41 | 0.25 |
